Assay results: patent US12319655B2, “RAF kinase inhibitors and methods of use thereof” (Deciphera Pharmaceuticals, LLC, priority 2021, dated 2025)

Key:
[1] = target: C-Raf kinase (SEQ. ID NO: 3) (Homo sapiens (Human), UniProt P04049, Y340D/Y341D); assay: Biochemical Assay for C-Raf (1); details: Table J, biochemical assay (1); read-out: CRAF (1)
In short: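 IC50 values come from a four-parameter fit of percent inhibition, using the reaction rate over 4–5 h of a 6 h continuous 340 nm read at 30 °C. The enzyme mix was C-Raf 0.43 nM, MEK substrate 30.1 nM and ATP 1 mM, in a PK/LDH NADH-coupled format in Tris pH 7.5 with 1% DMSO.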

[2] = tested on: Miapaca-2 cells; assay: MiaPaca-2 Cell Proliferation Assay (1); assay type: cell-based; details: Homo sapiens, MIA PaCa-2, single agent, read-out: MiaPaca2 (1) IC50
In short: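 Resazurin was added after compound exposure and incubated 5-6 h, then fluorescence read at 540 nm excitation and 600 nm emission to give IC50.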

[3] = target: B-Raf kinase (SEQ. ID NO: 2) (Homo sapiens (Human), UniProt P15056); assay: Biochemical Assay for B-Raf (1); details: Table J, biochemical assay (1); read-out: BRAF (1)
B-Raf kinase (SEQ. ID NO: 2), sequence (P15056 416-766): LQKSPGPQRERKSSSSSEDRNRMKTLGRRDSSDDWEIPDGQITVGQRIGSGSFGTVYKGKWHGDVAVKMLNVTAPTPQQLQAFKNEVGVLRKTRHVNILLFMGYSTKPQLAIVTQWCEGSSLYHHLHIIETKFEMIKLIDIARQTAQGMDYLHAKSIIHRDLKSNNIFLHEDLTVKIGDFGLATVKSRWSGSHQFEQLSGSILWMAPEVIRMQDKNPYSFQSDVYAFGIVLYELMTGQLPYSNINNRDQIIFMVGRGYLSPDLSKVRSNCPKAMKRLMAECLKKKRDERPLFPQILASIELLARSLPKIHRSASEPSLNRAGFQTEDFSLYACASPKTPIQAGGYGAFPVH
In short: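 IC50 derived by four-parameter sigmoidal fit of percent inhibition, normalised to uninhibited and reference-inhibitor controls, using reaction rates over 4–5 h. Coupled spectrophotometric readout (NADH loss at 340 nm, 6 h, 30° C.); 1 mM ATP, 30.1 nM MEK, 0.13 nM B-Raf, pH 7.5 Tris buffer, 1% DMSO.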

[4] = tested on: WM3928 cells; assay: WM3928 Cell Proliferation Assay (1); assay type: cell-based
In short: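 IC50 was derived from resazurin fluorescence (ex 540, em 600 nm) after a 6–7 h dye incubation. Before that, cells had 67–72 h of compound exposure at 37 °C, 5% CO2.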

C-Raf kinase (SEQ. ID NO: 3), sequence (P04049 307-648 Y340D/Y341D): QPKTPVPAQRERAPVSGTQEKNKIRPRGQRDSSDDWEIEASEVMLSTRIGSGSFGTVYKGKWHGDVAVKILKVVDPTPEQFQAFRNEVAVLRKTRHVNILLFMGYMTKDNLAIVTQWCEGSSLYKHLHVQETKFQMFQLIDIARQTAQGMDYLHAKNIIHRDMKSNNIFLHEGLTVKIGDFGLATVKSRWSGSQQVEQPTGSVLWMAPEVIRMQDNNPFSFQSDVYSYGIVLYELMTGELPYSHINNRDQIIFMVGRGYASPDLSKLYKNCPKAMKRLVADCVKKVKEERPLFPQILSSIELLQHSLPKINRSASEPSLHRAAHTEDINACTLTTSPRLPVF

Cc1ccc(NC(=O)c2ccnc(C3(C#N)CC3)c2)cc1-c1cncc(-c2cc(NC(=O)C3CC3)ncn2)c1 [Example 395]
IC50 [1]: ≤ 100 nM | IC50 [2]: 100 to 500 nM | IC50 [3]: ≤ 100 nM | IC50 [4]: ≤ 100 nM

Cc1ccc(NC(=O)c2ccnc(C3CC3)c2)cc1-c1cncc(-c2cc(NC(=O)C3CC3)ncn2)c1 [Example 396]
IC50 [1]: ≤ 100 nM | IC50 [2]: 1000 to 10000 nM | IC50 [3]: ≤ 100 nM | IC50 [4]: ≤ 100 nM

Cc1ccc(NC(=O)c2ccnc(C(F)(F)F)c2)cc1-c1cncc(-c2cc(NC(=O)C3CC3)ncn2)c1 [Example 397]
IC50 [1]: ≤ 100 nM | IC50 [2]: 100 to 500 nM | IC50 [3]: ≤ 100 nM | IC50 [4]: ≤ 100 nM

Cc1cc(F)c(NC(=O)c2ccnc(C3CC3)c2)cc1-c1cncc(-c2cc(NC(=O)C3CC3)ncn2)c1 [Example 398]
IC50 [1]: ≤ 100 nM | IC50 [2]: 500 to 1000 nM | IC50 [3]: ≤ 100 nM | IC50 [4]: ≤ 100 nM

COC(=O)Nc1cc(-c2cc(-c3cc(NC(=O)c4ccnc(C(C)(C)F)c4)ccc3C)cc(OCCO)n2)ccn1 [Example 401]
IC50 [1]: ≤ 100 nM | IC50 [2]: 1000 to 10000 nM | IC50 [3]: ≤ 100 nM | IC50 [4]: ≤ 100 nM
